Laboratory results reported in patent US7709636B2, “Pyrazole sulfonylurea compound and herbicide” (Nissan Chemical Industries, Ltd., priority 2004, dated 2010).

How the values were obtained:
Monochoria vaginalis [1] = experiment: Herbicidal effect test in submerged condition by treatment before weed-generation (1); assay type: in vivo; conditions: 0.64 g/a, water surface treated on day of sowing, 3 weeks after treatment
Summary of the method: (§1)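 Scores run 0 (≤5% effect) to 5 (≥90%, near-complete death), assessed visually 3 weeks post-treatment. Submerged paddy soil, water 4 cm deep, seeds sown and rice at 2.5th leaf stage transplanted; formulation diluted and poured onto water surface at sowing; greenhouse 25 to 30° C.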

Scirpus juncoides [2] = experiment: as above; assay type: in vivo; conditions: 0.64 g/a, water surface treated on day of sowing, 3 weeks after treatment
Summary of the method: as §1

Echinochloa crus-galli [3] = experiment: as above; assay type: in vivo; conditions: 0.64 g/a, water surface treated on day of sowing, 3 weeks after treatment
Summary of the method: as §1

Digitaria adscendes = experiment: Herbicidal effect test by foliage treatment; assay type: in vivo; conditions: 1.6 g/a; foliage treatment after growth of 14 days; 3 weeks after treatment
Summary of the method: (§2)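 Herbicidal effect was rated 3 weeks after a uniform foliar spray of wettable powder diluted in water to a predetermined formulation amount. Plants had been grown 14 days from seed in sterilized diluvial soil in a greenhouse at 25 to 30° C.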

[4] = system: Triticum aestivum (wheat); experiment: Herbicidal effect test by foliage treatment; assay type: in vivo; conditions: 1.6 g/a; foliage treatment after growth of 14 days; 3 weeks after treatment
Summary of the method: as §2

corn (Zea mays) = experiment: Herbicidal effect test by foliage treatment; assay type: in vivo; conditions: 1.6 g/a; foliage treatment after growth of 14 days; 3 weeks after treatment
Summary of the method: as §2

Polygonum blumei = experiment: Herbicidal effect test by foliage treatment; assay type: in vivo; conditions: 1.6 g/a; foliage treatment after growth of 14 days; 3 weeks after treatment
Summary of the method: as §2

Beta vulgaris (beet) = experiment: Herbicidal effect test by foliage treatment; assay type: in vivo; conditions: 1.6 g/a; foliage treatment after growth of 14 days; 3 weeks after treatment
Summary of the method: as §2

Chenopodium album = experiment: Herbicidal effect test by foliage treatment; assay type: in vivo; conditions: 1.6 g/a; foliage treatment after growth of 14 days; 3 weeks after treatment
Summary of the method: as §2

Monochoria vaginalis [5] = experiment: Herbicidal effect test in submerged condition by treatment during weed-growth stage (1); assay type: in vivo; conditions: 0.64 g/a, treated at 1st to 2nd leaf stage, 3 weeks after treatment
Summary of the method: (§3)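 Paddy-soil pots flooded to 4 cm water depth were sown and grown in a greenhouse at 25 to 30° C until weeds reached 1st to 2nd leaf stage. A wettable powder diluted in water to a predetermined formulation amount was applied to the water surface. Herbicidal effect was scored 3 weeks after treatment against set criteria.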

Scirpus juncoides [6] = experiment: as above; assay type: in vivo; conditions: 0.64 g/a, treated at 1st to 2nd leaf stage, 3 weeks after treatment
Summary of the method: as §3

Echinochloa crus-galli [7] = experiment: as above; assay type: in vivo; conditions: 0.64 g/a, treated at 1st to 2nd leaf stage, 3 weeks after treatment
Summary of the method: as §3

direct sown rice = experiment: Herbicidal effect test by soil treatment; assay type: in vivo, Oryza sativa; conditions: 1.6 g/a, 3 weeks after treatment
Summary of the method: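 Read-out is a visual herbicidal-effect rating taken 3 weeks post-treatment. Plants grew from seed sown in sterilized diluvial soil, covered with about 1.5 cm soil, then surface-sprayed with water-diluted wettable powder at a predetermined formulation amount.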

[8] = system: transplanted rice (Oryza sativa); experiment: Crop injury test on rice in water leakage condition; assay type: in vivo; conditions: 0.15 g/a; water leakage 2 cm/day x 3 days; treated on third day after transplantation; 3 weeks after treatment
Procedure: Crop Injury Test on Rice in Water Leakage Condition A mixed soil of alluvial soil and diluvial soil was placed in a plastic pot perforated at the bottom of 1/10000 are, water was poured therein and mixed, and then rice seedlings at 2.5th leaf stage were transplanted. Water leakage treatment was carried out by placing the pot in a plastic vat, and controlling the amount of water in the vat kept at a condition of 2 cm/day×3 days. The pot was put in a green house at 25 to 30° C., on third day after transplantation, the wettable powder of the present invention prepared according to Formulation Example 1 was diluted with water so as to give a predetermined formulation amount, and the surface of the water was treated with the diluted wettable powder. The crop injury on rice was investigated 3 weeks after treatment with the herbicide according to the criteria indicated in Test Example 1.

[9] = system: rice transplanted at a depth of 0 cm; experiment: Herbicidal effect test in submerged condition by treatment before weed-generation (2); assay type: in vivo, Oryza sativa; conditions: 0.3 g/a; submerged paddy soil pot, seedlings fixed to paddy surface with roots exposed; 3 weeks after treatment
Procedure: Herbicidal Effect Test in Submerged Condition by Treatment Before Weed-Generation (2)
Paddy surface soil was placed in a plastic pot of 1/10000 are, water was poured therein and mixed. After seeds of Scirpus juncoides were sown, paddy surface soil was added by 2 cm, and submerged with water, and then seeds of Echinochloa crus-galli, Scirpus juncoides, Monochoria vaginalis, Rotala indica and Lindernia pyxidaria were sown together. In addition, rice seedlings at 2.5th leaf stage were transplanted, and fixed to the paddy surface in a state where the roots were exposed on the other side. On the day when the seeds were sown, the wettable powder of the present invention prepared according to Formulation Example 1 was diluted with water so as to give a predetermined formulation amount, and the surface of the water was treated with the diluted wettable powder. The plants were grown by putting the pot in a green house at 25 to 30° C. The herbicidal effect for each plant was investigated 3 weeks after treatment with the herbicide according to the criteria indicated in Test Example 1.

## COc1cc(OC)nc(NC(=O)NS(=O)(=O)c2c(C3=NOCC(C)O3)c(Cl)nn2C)n1 (stereo not drawn) [Compound 1, N-((4,6-dimethoxypyrimidin-2-yl)aminocarbonyl)-3-chloro-1-methyl-4-(5-methyl-5H,6H-1,4,2-dioxadin-3-yl)pyrazole-5-sulfonamide]
Monochoria vaginalis [1]
  herbicidal effect, C: Monochoria vaginalis: 5 (Herbicidal rate 90% or more (almost complete death))
Scirpus juncoides [2]
  herbicidal effect, B: Scirpus juncoides: 5 (Herbicidal rate 90% or more (almost complete death))
Echinochloa crus-galli [3]
  herbicidal effect, A: Echinochloa crus-galli: 5 (Herbicidal rate 90% or more (almost complete death))
Digitaria adscendes
  herbicidal effect, D: Digitaria adscendes: 5 (Herbicidal rate 90% or more (almost complete death))
[4]
  herbicidal effect, e: Triticum aestivum (wheat): 2 (Herbicidal rate 20% or more and less than 40%)
Corn (Zea mays)
  herbicidal effect, b: corn (Zea mays): 5 (Herbicidal rate 90% or more (almost complete death))
Polygonum blumei
  herbicidal effect, L: Polygonum blumei: 5 (Herbicidal rate 90% or more (almost complete death))
Beta vulgaris (beet)
  herbicidal effect, f: Beta vulgaris (beet): 5 (Herbicidal rate 90% or more (almost complete death))
Chenopodium album
  herbicidal effect, K: Chenopodium album: 4 (Herbicidal rate 70% or more and less than 90%)
Monochoria vaginalis [5]
  herbicidal effect, C: Monochoria vaginalis: 5 (Herbicidal rate 90% or more (almost complete death))
Scirpus juncoides [6]
  herbicidal effect, B: Scirpus juncoides: 5 (Herbicidal rate 90% or more (almost complete death))
Echinochloa crus-galli [7]
  herbicidal effect, A: Echinochloa crus-galli: 5 (Herbicidal rate 90% or more (almost complete death))
Direct sown rice
  herbicidal effect, d: direct sown rice: 2 (Herbicidal rate 20% or more and less than 40%)
[8]
  crop injury on rice, a: transplanted rice (Oryza sativa): 0 (Herbicidal rate 5% or less (little effect))
[9]
  herbicidal effect, g: rice transplanted at a depth of 0 cm: 0 (Herbicidal rate 5% or less (little effect))
